Among the data in ChEMBL document CHEMBL1156959, “Potent ketoamide inhibitors of HCV NS3 protease derived from quaternized P1 groups” (Bioorg Med Chem Lett, 2010) are EC90 and Ki values, retold here.

The subject of assay [1] is Hepatitis C virus. As to the kind of experiment: Antiviral activity against Hepatitis C virus genotype 1 assessed as Inhibition of RNA replication transfected in human hepatoma cells. Type of assay: functional, Hepacivirus hominis.
In assay [2] the test system is Hepatitis C virus. As to the kind of experiment: Inhibition of Hepatitis C virus genotype 1 NS3 protease. Type of assay: functional.

As to `CC[C@@H]1C[C@@]1(NC(=O)[C@@H]1[C@@H]2[C@H](CN1C(=O)[C@@H](NC(=O)N[C@H](CN1C(=O)CC(C)(C)CC1=O)C(C)(C)C)C1(C)CCCCC1)C2(C)C)C(=O)C(N)=O`, the EC90 with Hepatitis C virus [1] came to 400 nM. Besides, in the assay with Hepatitis C virus [2], the Ki was determined as 0.023 nM. As to `C[C@@H]1C[C@@]1(NC(=O)[C@@H]1[C@@H]2[C@H](CN1C(=O)[C@@H](NC(=O)NC1(CS(=O)(=O)C(C)(C)C)CCCCC1)C(C)(C)C)C2(C)C)C(=O)C(=O)NC1CC1`, in the assay with Hepatitis C virus [2], the inhibition constant (Ki) is 3 nM. Same read-out and setting: then `CC1CC(NC(=O)[C@@H]2[C@@H]3[C@H](CN2C(=O)[C@@H](NC(=O)NC2(CS(=O)(=O)C(C)(C)C)CCCCC2)C(C)(C)C)C3(C)C)(C(=O)C(=O)NC2CC2)C1` (stereo partly drawn), with 0.42 nM. Still for that read-out and setting: then `CCC[C@@H]1C[C@@]1(NC(=O)[C@@H]1[C@@H]2[C@H](CN1C(=O)[C@@H](NC(=O)NC1(CS(=O)(=O)C(C)(C)C)CCCCC1)C(C)(C)C)C2(C)C)C(=O)C(=O)NC1CC1`, with 0.7 nM. Regarding `CC(C)(C)NC(=O)N[C@H](C(=O)N1C[C@H]2[C@@H]([C@H]1C(=O)NC(CC1CCC1)C(=O)C(N)=O)C2(C)C)C(C)(C)C` (stereo partly drawn) [BOCEPREVIR], in the assay on Hepatitis C virus [1], the EC90 was 350 nM. In the assay with Hepatitis C virus [2], this compound displayed an inhibition constant Ki of 14 nM. In the case of `CC[C@@H]1C[C@@]1(NC(=O)[C@@H]1[C@@H]2[C@H](CN1C(=O)[C@@H](NC(=O)NC1(CS(=O)(=O)C(C)(C)C)CCCCC1)C(C)(C)C)C2(C)C)C(=O)C(=O)NC1CC1`, the Ki in the assay with Hepatitis C virus [2] is 0.11 nM. Consider `CC(C)(C)[C@H](NC(=O)NC1(CS(=O)(=O)C(C)(C)C)CCCCC1)C(=O)N1C[C@H]2[C@@H]([C@H]1C(=O)NC1(C(=O)C(=O)NC3CC3)CCC1)C2(C)C`, for which affinity in the assay with Hepatitis C virus [2] was put at a Ki of 15 nM. In the assay on Hepatitis C virus [2], `CC[C@@H]1C[C@@]1(NC(=O)[C@@H]1[C@@H]2[C@H](CN1C(=O)[C@@H](NC(=O)NC1(CS(=O)(=O)C(C)(C)C)CCCCC1)C1CCCCC1)C2(C)C)C(=O)C(=O)NC1CC1` came in with a Ki of 0.6 nM. The same measure, in the same setting: then `CC(C)(C)[C@H](NC(=O)NC1(CS(=O)(=O)C(C)(C)C)CCCCC1)C(=O)N1C[C@H]2[C@@H]([C@H]1C(=O)NC1(C(=O)C(=O)NC3CC3)CC(O)C1)C2(C)C` (stereo partly drawn), with 89 nM.

As to `CC(C)(C)[C@H](NC(=O)NC1(CS(=O)(=O)C(C)(C)C)CCCCC1)C(=O)N1C[C@H]2[C@@H]([C@H]1C(=O)NC1(C(=O)C(=O)NC3CC3)CC1)C2(C)C`, affinity in the assay with Hepatitis C virus [2] was put at a Ki of 18 nM.

Regarding `CC[C@@H]1C[C@@]1(NC(=O)[C@@H]1[C@@H]2[C@H](CN1C(=O)[C@@H](NC(=O)N[C@H](CN1C(=O)CC(C)(C)CC1=O)C(C)(C)C)C(C)(C)C)C2(C)C)C(=O)C(N)=O`, the EC90 in the assay with Hepatitis C virus [1] was 1600 nM. This compound also returned a Ki in the assay with Hepatitis C virus [2] of 0.058 nM. Consider `CC[C@@H]1C[C@@]1(NC(=O)[C@@H]1[C@@H]2[C@H](CN1C(=O)[C@@H](NC(=O)NC1([C@@H](C)S(=O)(=O)C(C)(C)C)CCCCC1)C1(C)CCCCC1)C2(C)C)C(=O)C(N)=O`, for which the 90% effect concentration (EC90) with Hepatitis C virus [1] came out at 400 nM. Further, in the assay on Hepatitis C virus [2], the Ki is 0.015 nM. For `CC[C@@H]1C[C@@]1(NC(=O)[C@@H]1[C@@H]2[C@H](CN1C(=O)[C@@H](NC(=O)N[C@H](CN1C(=O)CC(C)(C)CC1=O)C(C)(C)C)C(C)(C)C)C2(C)C)C(=O)C(=O)NC1CC1`, in that order: 500 nM and 0.082 nM. As for `CC[C@@H]1C[C@@]1(NC(=O)[C@@H]1[C@@H]2[C@H](CN1C(=O)[C@@H](NC(=O)NC1([C@@H](C)S(=O)(=O)C(C)(C)C)CCCCC1)C1(C)CCCCC1)C2(C)C)C(=O)C(=O)NC1CC1`, in the assay on Hepatitis C virus [2], the Ki came to 0.95 nM. Still for that read-out and setting: the value for `CC[C@@H]1C[C@@]1(NC(=O)[C@@H]1[C@@H]2[C@H](CN1C(=O)[C@@H](NC(=O)NC1([C@@H](C)S(=O)(=O)C(C)(C)C)CCCCC1)C1Cc3ccccc3C1)C2(C)C)C(=O)C(=O)NC1CC1` was 0.5 nM. `CCC1CC(NC(=O)[C@@H]2[C@@H]3[C@H](CN2C(=O)[C@@H](NC(=O)NC2(CS(=O)(=O)C(C)(C)C)CCCCC2)C(C)(C)C)C3(C)C)(C(=O)C(=O)NC2CC2)C1` (stereo partly drawn) displayed a Ki with Hepatitis C virus [2] of 0.19 nM.

As to `CC[C@@H]1C[C@@]1(NC(=O)[C@@H]1[C@@H]2[C@H](CN1C(=O)[C@@H](NC(=O)N[C@H](CN(C)S(C)(=O)=O)C(C)(C)C)C(C)(C)C)C2(C)C)C(=O)C(=O)NC1CC1`, the EC90 with Hepatitis C virus [1] was found to be 2700 nM. In addition, the Ki in the assay with Hepatitis C virus [2] was 0.2 nM.
